Measured values as given in PubChem BioAssay AID1963835 (Molecular Pharmacology Branch, DTP, NCI, 2024).
pIC50: −log10 of the molar value.

System: 699152-130-R-J1-PDC complex spheroid viability
Assay: Anticancer human tumor 699152-130-R-J1-PDC patient-derived pancreatic carcinoma cell line growth inhibition [POLQ]
Details: for pIC50: curve of first compound; for viability, T/C: stronger effect = lower value
How it was run: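 Patient-derived tumour cells were co-cultured with HUVEC and mesenchymal stem cells as multicellular spheroids at 37 °C. They were treated with POLQ inhibitors (novobiocin, ART-558, RP6685) alone or combined with other agents. Top concentrations were at or near clinical Cmax (otherwise 10 microM; SN-38 at 1 microM), decreasing in half-log steps.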

[1] = second compound 0.0316 µM, first compound 0.0316 µM
[2] = second compound 0.0316 µM, first compound 0.1 µM
[3] = second compound 0.0316 µM, first compound 0.316 µM
[4] = second compound 0.0316 µM, first compound 1 µM
[5] = second compound 0.0316 µM, first compound 3.16 µM
[6] = second compound 0.0316 µM, first compound 10 µM
[7] = second compound 0.1 µM, first compound 0.0316 µM
[8] = second compound 0.1 µM, first compound 0.1 µM
[9] = second compound 0.1 µM, first compound 0.316 µM
[10] = second compound 0.1 µM, first compound 1 µM
[11] = second compound 0.1 µM, first compound 3.16 µM
[12] = second compound 0.1 µM, first compound 10 µM
[13] = second compound 0.316 µM, first compound 0.0316 µM
[14] = second compound 0.316 µM, first compound 0.1 µM
[15] = second compound 0.316 µM, first compound 0.316 µM
[16] = second compound 0.316 µM, first compound 1 µM
[17] = second compound 0.316 µM, first compound 3.16 µM
[18] = second compound 0.316 µM, first compound 10 µM
[19] = second compound 1 µM, first compound 0.0316 µM
[20] = second compound 1 µM, first compound 0.1 µM
[21] = second compound 1 µM, first compound 0.316 µM
[22] = second compound 1 µM, first compound 1 µM
[23] = second compound 1 µM, first compound 3.16 µM
[24] = second compound 1 µM, first compound 10 µM
[25] = second compound 3.16 µM, first compound 0.0316 µM
[26] = second compound 3.16 µM, first compound 0.1 µM
[27] = second compound 3.16 µM, first compound 0.316 µM
[28] = second compound 3.16 µM, first compound 1 µM
[29] = second compound 3.16 µM, first compound 3.16 µM
[30] = second compound 3.16 µM, first compound 10 µM
[31] = second compound 10 µM, first compound 0.0316 µM
[32] = second compound 10 µM, first compound 0.1 µM
[33] = second compound 10 µM, first compound 0.316 µM
[34] = second compound 10 µM, first compound 1 µM
[35] = second compound 10 µM, first compound 3.16 µM
[36] = second compound 10 µM, first compound 10 µM
[37] = second compound 0.0316 µM, first compound 0.00316 µM
[38] = second compound 0.0316 µM, first compound 0.01 µM
[39] = second compound 0.1 µM, first compound 0.00316 µM
[40] = second compound 0.1 µM, first compound 0.01 µM
[41] = second compound 0.316 µM, first compound 0.00316 µM
[42] = second compound 0.316 µM, first compound 0.01 µM
[43] = second compound 1 µM, first compound 0.00316 µM
[44] = second compound 1 µM, first compound 0.01 µM
[45] = second compound 3.16 µM, first compound 0.00316 µM
[46] = second compound 3.16 µM, first compound 0.01 µM
[47] = second compound 10 µM, first compound 0.00316 µM
[48] = second compound 10 µM, first compound 0.01 µM
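Also: spheroids exposed to agents for 7 days before viability reading.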
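For viability, T/C in this document: percent of DMSO vehicle control viability so 100% = vehicle and 0% = no viable signal.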

CCCS(=O)(=O)Nc1ccc(F)c(C(=O)c2c[nH]c3ncc(-c4ccc(Cl)cc4)cc23)c1F + COC1C(OC(N)=O)C(O)C(Oc2ccc3c(O)c(NC(=O)c4ccc(O)c(CC=C(C)C)c4)c(=O)oc3c2C)OC1(C)C
pIC50 (second compound 0.0316 µM): < 5.00
pIC50 (second compound 0.1 µM): < 5.00
pIC50 (second compound 0.316 µM): < 5.00
pIC50 (second compound 1 µM): < 5.00
pIC50 (second compound 3.16 µM): < 5.00
pIC50 (second compound 10 µM): < 5.00
viability, T/C [1]: 117%
viability, T/C [2]: 105%
viability, T/C [3]: 125%
viability, T/C [4]: 151%
viability, T/C [5]: 172%
viability, T/C [6]: 64.7%
viability, T/C [7]: 115%
viability, T/C [8]: 109%
viability, T/C [9]: 126%
viability, T/C [10]: 159%
viability, T/C [11]: 191%
viability, T/C [12]: 64.1%
viability, T/C [13]: 108%
viability, T/C [14]: 112%
viability, T/C [15]: 134%
viability, T/C [16]: 149%
viability, T/C [17]: 177%
viability, T/C [18]: 59.9%
viability, T/C [19]: 105%
viability, T/C [20]: 115%
viability, T/C [21]: 126%
viability, T/C [22]: 147%
viability, T/C [23]: 171%
viability, T/C [24]: 64.1%
viability, T/C [25]: 105%
viability, T/C [26]: 121%
viability, T/C [27]: 124%
viability, T/C [28]: 145%
viability, T/C [29]: 281%
viability, T/C [30]: 68.3%
viability, T/C [31]: 107%
viability, T/C [32]: 114%
viability, T/C [33]: 123%
viability, T/C [34]: 148%
viability, T/C [35]: 175%
viability, T/C [36]: 66.4%

COc1cccc(OCCCN)c1-c1cc(Nc2cnc(C#N)cn2)n[nH]1 + Cc1cccc(N(C)C(=O)C2C(O)CCN2c2nc(C)cc(C(F)(F)F)c2C#N)c1
pIC50 (second compound 0.0316 µM): < 6.00
pIC50 (second compound 0.1 µM): < 6.00
pIC50 (second compound 0.316 µM): < 6.00
pIC50 (second compound 1 µM): < 6.00
pIC50 (second compound 3.16 µM): < 6.00
pIC50 (second compound 10 µM): < 6.00
viability, T/C [37]: 93%
viability, T/C [38]: 75.7%
viability, T/C [1]: 64.7%
viability, T/C [2]: 63.1%
viability, T/C [3]: 50.8%
viability, T/C [4]: 51.2%
viability, T/C [39]: 89.4%
viability, T/C [40]: 85.7%
viability, T/C [7]: 67.4%
viability, T/C [8]: 58.1%
viability, T/C [9]: 55.5%
viability, T/C [10]: 49.1%
viability, T/C [41]: 100%
viability, T/C [42]: 91.3%
viability, T/C [13]: 61.5%
viability, T/C [14]: 59.6%
viability, T/C [15]: 54.5%
viability, T/C [16]: 46.7%
viability, T/C [43]: 92.8%
viability, T/C [44]: 90.7%
viability, T/C [19]: 61.2%
viability, T/C [20]: 54.1%
viability, T/C [21]: 52.8%
viability, T/C [22]: 48.7%
viability, T/C [45]: 86.3%
viability, T/C [46]: 86.4%
viability, T/C [25]: 67.2%
viability, T/C [26]: 56.3%
viability, T/C [27]: 51.2%
viability, T/C [28]: 57.3%
viability, T/C [47]: 98.1%
viability, T/C [48]: 88%
viability, T/C [31]: 61.6%
viability, T/C [32]: 59%
viability, T/C [33]: 58.4%
viability, T/C [34]: 56.1%

CC[C@@]1(O)C(=O)OCc2c1cc1n(c2=O)Cc2cc3c(CN(C)C)c(O)ccc3nc2-1 + COC1C(OC(N)=O)C(O)C(Oc2ccc3c(O)c(NC(=O)c4ccc(O)c(CC=C(C)C)c4)c(=O)oc3c2C)OC1(C)C
pIC50 (second compound 0.0316 µM): < 7.00
pIC50 (second compound 0.1 µM): < 7.00
pIC50 (second compound 0.316 µM): < 7.00
pIC50 (second compound 1 µM): 7.02
pIC50 (second compound 3.16 µM): < 7.00
pIC50 (second compound 10 µM): < 7.00
viability, T/C (second compound 0.0316 µM, first compound 0.000316 µM): 116%
viability, T/C (second compound 0.0316 µM, first compound 0.001 µM): 101%
viability, T/C [37]: 99.3%
viability, T/C [38]: 93.1%
viability, T/C [1]: 79.6%
viability, T/C [2]: 48.4%
viability, T/C (second compound 0.1 µM, first compound 0.000316 µM): 111%
viability, T/C (second compound 0.1 µM, first compound 0.001 µM): 99.6%
viability, T/C [39]: 90.4%
viability, T/C [40]: 93.2%
viability, T/C [7]: 69%
viability, T/C [8]: 60.2%
viability, T/C (second compound 0.316 µM, first compound 0.000316 µM): 112%
viability, T/C (second compound 0.316 µM, first compound 0.001 µM): 94.3%
viability, T/C [41]: 84.9%
viability, T/C [42]: 94%
viability, T/C [13]: 77.9%
viability, T/C [14]: 61.6%
viability, T/C (second compound 1 µM, first compound 0.000316 µM): 97.5%
viability, T/C (second compound 1 µM, first compound 0.001 µM): 92.8%
viability, T/C [43]: 99%
viability, T/C [44]: 92.2%
viability, T/C [19]: 83.2%
viability, T/C [20]: 48.3%
viability, T/C (second compound 3.16 µM, first compound 0.000316 µM): 92.5%
viability, T/C (second compound 3.16 µM, first compound 0.001 µM): 106%
viability, T/C [45]: 83%
viability, T/C [46]: 96.4%
viability, T/C [25]: 80%
viability, T/C [26]: 58%
viability, T/C (second compound 10 µM, first compound 0.000316 µM): 103%
viability, T/C (second compound 10 µM, first compound 0.001 µM): 89.4%
viability, T/C [47]: 98.8%
viability, T/C [48]: 95.4%
viability, T/C [31]: 69.7%
viability, T/C [32]: 60.9%

CC1COCCN1c1cc(C2(S(C)(=N)=O)CC2)nc(-c2ccnc3[nH]ccc23)n1 (stereo not drawn) + COC1C(OC(N)=O)C(O)C(Oc2ccc3c(O)c(NC(=O)c4ccc(O)c(CC=C(C)C)c4)c(=O)oc3c2C)OC1(C)C
pIC50 (second compound 0.0316 µM): < 5.00
pIC50 (second compound 0.1 µM): < 5.00
pIC50 (second compound 0.316 µM): < 5.00
pIC50 (second compound 1 µM): < 5.00
pIC50 (second compound 3.16 µM): < 5.00
pIC50 (second compound 10 µM): < 5.00
viability, T/C [1]: 103%
viability, T/C [2]: 102%
viability, T/C [3]: 95.4%
viability, T/C [4]: 96.6%
viability, T/C [5]: 79%
viability, T/C [6]: 69.3%
viability, T/C [7]: 89.8%
viability, T/C [8]: 88%
viability, T/C [9]: 90.2%
viability, T/C [10]: 101%
viability, T/C [11]: 73.3%
viability, T/C [12]: 60.4%
viability, T/C [13]: 98%
viability, T/C [14]: 101%
viability, T/C [15]: 106%
viability, T/C [16]: 88.3%
viability, T/C [17]: 78.8%
viability, T/C [18]: 63%
viability, T/C [19]: 119%
viability, T/C [20]: 97.6%
viability, T/C [21]: 108%
viability, T/C [22]: 92.9%
viability, T/C [23]: 77.8%
viability, T/C [24]: 66.5%
viability, T/C [25]: 108%
viability, T/C [26]: 99.2%
viability, T/C [27]: 98.1%
viability, T/C [28]: 86.4%
viability, T/C [29]: 69.3%
viability, T/C [30]: 64.5%
viability, T/C [31]: 104%
viability, T/C [32]: 107%
viability, T/C [33]: 90.7%
viability, T/C [34]: 90.7%
viability, T/C [35]: 86%
viability, T/C [36]: 87.3%
